Data set [1] can be described thus: Compound cytotoxicity, XTT-based colorimetric assay. It counts as cell-based. The following applies: human; uninfected MT2 cells, day 4, XTT; read-out: CC50. How it is done:
Compound cytotoxicity and the corresponding CC50 values were determined using the same protocol as described in the antiviral assay except that uninfected cells were used. Cytotoxicity was assessed on day 4 in uninfected MT2 cells by using a XTT (2,3-bis [2-Methoxy-4-nitro-5-sulfophenyl]-2H-tetrazolium-5-carboxyanilide inner salt)-based colorimetric assay (Sigma-Aldrich, St Louis, Mo.).

The subject of data set [2] is recombinant NL4-3 virus (Renilla luciferase reporter) in MT-2 cells. Nature of the data set: HIV cell culture assay (antiviral activity, luciferase readout in infected MT-2 cells). As to conditions: NL43. The class given is cell-based. How it is done:
HIV cell culture assay—MT-2 cells, 293T cells and the proviral DNA clone of NL4-3 virus were obtained from the NIH AIDS Research and Reference Reagent Program. MT-2 cells were propagated in RPMI 1640 media supplemented with 10% heat inactivated fetal bovine serum (FBS), […]. The 293T cells were propagated in DMEM media supplemented with 10% heat inactivated FBS, […]. A recombinant NL4-3 proviral clone, in which a section of the nef gene was replaced with the Renilla luciferase gene, was used to make the reference virus used in these studies. The recombinant virus was prepared through transfection of the recombinant NL4-3 proviral clone into 293T cells using Transit-293 Transfection Reagent from Mirus Bio LLC (Madison, Wis.). Supernatent was harvested after 2-3 days and the amount of virus present was titered in MT-2 cells using luciferase enzyme activity as a marker by measuring luciferase enzyme activity. Luciferase was quantitated using the EnduRen Live Cell Substrate from Promega (Madison, Wis.). Antiviral activities of compounds toward the recombinant virus were quantified by measuring luciferase activity in MT-2 cells infected for 4-5 days with the recombinant virus in the presence of serial dilutions of the compound.
The 50% effective concentration (EC50) was calculated by using the exponential form of the median effect equation where (Fa)=1/[1+(EC50/drug conc.)m] (Johnson V A, Byington RT. Infectivity Assay. In Techniques in HIV Research, ed. Aldovini A, Walker B D. 71-76. New York: Stockton Press. 1990). The 50% inhibitory concentration (EC50) was calculated by using the exponential form of the median effect equation where percent inhibition=1/[1+(EC50/drug concentration)m], where m is a parameter that reflects the slope of the concentration-response curve.

What is called CC50 is the concentration that lowers cell viability or growth by half. The EC50 is the concentration that produces a half-maximal response. On to `C[C@@H]1CN(c2ccc3c(=O)n(-c4ccc(Cl)c5c(NS(C)(=O)=O)nn(CC(F)F)c45)c([C@H](Cc4cc(F)cc(F)c4)NC(=O)Cn4nc(C(F)(F)F)c5c4C(F)(F)[C@@H]4C[C@H]54)nc3n2)C[C@H](C)O1` (atropisomer, axis not shown; (aR)) [Example 4, N—((S)-1-(3-(4-chloro-1-(2,2-difluoroethyl)-3-(methylsulfonamido)-1H-indazol-7-yl)-7-((2S,6R)-2,6-dimethylmorpholino)-4-oxo-3,4-dihydropyrido[2,3-d]pyrimidin-2-yl)-2-(3,5-difluorophenyl)ethyl)-2-((3bS,4aR)-5,5-difluoro-3-(trifluoromethyl)-3b,4,4a,5-tetrahydro-1H-cyclopropa[3,4]cyclopenta[1,2-c]pyrazol-1-yl)acetamide], for which the CC50 at 4 days in data set [1] is greater than 500 nM. Moreover, in data set [2], the EC50 worked out at 0.031 nM.
On to `Cn1nc(NS(C)(=O)=O)c2c(Cl)ccc(-n3c([C@H](Cc4cc(F)cc(F)c4)NC(=O)Cn4nc(C(F)F)c5c4C(F)(F)[C@@H]4C[C@H]54)nc4nc(NCCC(F)(F)F)ccc4c3=O)c21` (atropisomer, axis not shown; (P)) [Example 32, N—((S)-1-((3P)-3-(4-chloro-1-methyl-3-(methylsulfonamido)-1H-indazol-7-yl)-4-oxo-7-((3,3,3-trifluoropropyl)amino)-3,4-dihydropyrido[2,3-d]pyrimidin-2-yl)-2-(3,5-difluorophenyl)ethyl)-2-((3bS,4aR)-3-(difluoromethyl)-5,5-difluoro-3b,4,4a,5-tetrahydro-1H-cyclopropa[3,4]cyclopenta[1,2-c]pyrazol-1-yl)acetamide], for which, in data set [1], the CC50 at 4 days was greater than 100 nM. The EC50 in data set [2] was determined as 0.042 nM.
Consider `Cn1nc(NS(C)(=O)=O)c2c(Cl)ccc(-n3c([C@H](Cc4cc(F)cc(F)c4)NC(=O)Cn4nc(C(F)F)c5c4C(F)(F)[C@@H]4C[C@H]54)nc4nc(NCCC(C)(C)F)ccc4c3=O)c21` (atropisomer, axis not shown; (P)) [Example 24, N—((S)-1-((3P)-3-(4-chloro-1-methyl-3-(methylsulfonamido)-1H-indazol-7-yl)-7-((3-fluoro-3-methylbutyl)amino)-4-oxo-3,4-dihydropyrido[2,3-d]pyrimidin-2-yl)-2-(3,5-difluorophenyl)ethyl)-2-((3bS,4aR)-3-(difluoromethyl)-5,5-difluoro-3b,4,4a,5-tetrahydro-1H-cyclopropa[3,4]cyclopenta[1,2-c]pyrazol-1-yl)acetamide], for which the CC50 at 4 days in data set [1] was greater than 100 nM. Besides, the EC50 in data set [2] was found to be 0.04 nM.
Turning to `Cn1nc(NS(C)(=O)=O)c2c(Cl)ccc(-n3c([C@H](Cc4cc(F)cc(F)c4)NC(=O)Cn4nc(C(F)F)c5c4C(F)(F)[C@@H]4C[C@H]54)nc4nc(N5CCCOCC5)ccc4c3=O)c21` (atropisomer, axis not shown; (P)) [Example 22, N—((S)-1-((3P)-3-(4-chloro-1-methyl-3-(methylsulfonamido)-1H-indazol-7-yl)-7-(1,4-oxazepan-4-yl)-4-oxo-3,4-dihydropyrido[2,3-d]pyrimidin-2-yl)-2-(3,5-difluorophenyl)ethyl)-2-((3bS,4aR)-3-(difluoromethyl)-5,5-difluoro-3b,4,4a,5-tetrahydro-1H-cyclopropa[3,4]cyclopenta[1,2-c]pyrazol-1-yl)acetamide], the CC50 at 4 days in data set [1] was greater than 100 nM. Further, the EC50 in data set [2] worked out at 0.052 nM.
With `CC(C)n1ccc(CC(=O)N[C@@H](Cc2cc(F)cc(F)c2)c2nc3nc(N4C[C@@H](C)O[C@@H](C)C4)ccc3c(=O)n2-c2ccc(Cl)c3c(NS(C)(=O)=O)nn(C)c23)n1` (atropisomer, axis not shown; (P)) [Example 18, N—((S)-1-((3P)-3-(4-chloro-1-methyl-3-(methylsulfonamido)-1H-indazol-7-yl)-7-((2S,6R)-2,6-dimethylmorpholino)-4-oxo-3,4-dihydropyrido[2,3-d]pyrimidin-2-yl)-2-(3,5-difluorophenyl)ethyl)-2-(1-isopropyl-1H-pyrazol-3-yl)acetamide], in data set [1], the CC50 at 4 days is greater than 100 nM. Besides, the EC50 in data set [2] was found to be 0.16 nM.
Regarding `C[C@@H]1CN(c2ccc3c(=O)n(-c4ccc(Cl)c5c(NS(C)(=O)=O)nn(CC(F)(F)F)c45)c([C@H](Cc4cc(F)cc(F)c4)NC(=O)Cn4ccc(C5CC5)n4)nc3n2)C[C@H](C)O1` (atropisomer, axis not shown; (P)) [Example 17, N—((S)-1-((3P)-3-(4-chloro-3-(methylsulfonamido)-1-(2,2,2-trifluoroethyl)-1H-indazol-7-yl)-7-((2S,6R)-2,6-dimethylmorpholino)-4-oxo-3,4-dihydropyrido[2,3-d]pyrimidin-2-yl)-2-(3,5-difluorophenyl)ethyl)-2-(3-cyclopropyl-1H-pyrazol-1-yl)acetamide], the CC50 at 4 days in data set [1] is greater than 500 nM. Also, the EC50 in data set [2] came out at 0.24 nM.
On the same counts, the results for `C[C@@H]1CN(c2ccc3c(=O)n(-c4ccc(Cl)c5c(NS(C)(=O)=O)nn(C)c45)c([C@H](Cc4cc(F)cc(F)c4)NC(=O)Cn4nc(C(F)F)c5c4C(F)(F)[C@@H]4C[C@H]54)nc3n2)C[C@H](C)O1` (atropisomer, axis not shown; (aR)) [Example 1, N—((S)-1-(3-(4-chloro-1-methyl-3-(methylsulfonamido)-1H-indazol-7-yl)-7-((2S,6R)-2,6-dimethylmorpholino)-4-oxo-3,4-dihydropyrido[2,3-d]pyrimidin-2-yl)-2-(3,5-difluorophenyl)ethyl)-2-((3bS,4aR)-3-(difluoromethyl)-5,5-difluoro-3b,4,4a,5-tetrahydro-1H-cyclopropa[3,4]cyclopenta[1,2-c]pyrazol-1-yl)acetamide] are greater than 500 nM and 0.041 nM.
For the compound `CN(CCC(F)(F)F)c1ccc2c(=O)n(-c3ccc(Cl)c4c(NS(C)(=O)=O)nn(C)c34)c([C@H](Cc3cc(F)cc(F)c3)NC(=O)Cn3nc(C(F)F)c4c3C(F)(F)[C@@H]3C[C@H]43)nc2n1` (atropisomer, axis not shown; (P)) [Example 30, N—((S)-1-((3P)-3-(4-chloro-1-methyl-3-(methylsulfonamido)-1H-indazol-7-yl)-7-(methyl(3,3,3-trifluoropropyl)amino)-4-oxo-3,4-dihydropyrido[2,3-d]pyrimidin-2-yl)-2-(3,5-difluorophenyl)ethyl)-2-((3bS,4aR)-3-(difluoromethyl)-5,5-difluoro-3b,4,4a,5-tetrahydro-1H-cyclopropa[3,4]cyclopenta[1,2-c]pyrazol-1-yl)acetamide], the CC50 at 4 days in data set [1] was greater than 100 nM. Moreover, the EC50 in data set [2] amounted to 0.032 nM.
Take `CCN(CCC(F)(F)F)c1ccc2c(=O)n(-c3ccc(Cl)c4c(NS(C)(=O)=O)nn(C)c34)c([C@H](Cc3cc(F)cc(F)c3)NC(=O)Cn3nc(C(F)F)c4c3C(F)(F)[C@@H]3C[C@H]43)nc2n1` [Example 10, N—((S)-1-((3P)-3-(4-chloro-1-methyl-3-(methylsulfonamido)-1H-indazol-7-yl)-7-(ethyl(3,3,3-trifluoropropyl)amino)-4-oxo-3,4-dihydropyrido[2,3-d]pyrimidin-2-yl)-2-(3,5-difluorophenyl)ethyl)-2-((3bS,4aR)-3-(difluoromethyl)-5,5-difluoro-3b,4,4a,5-tetrahydro-1H-cyclopropa[3,4]cyclopenta[1,2-c]pyrazol-1-yl)acetamide]: in data set [1], the CC50 at 4 days is greater than 100 nM. Further, the 50% effective concentration (EC50) in data set [2] was 0.037 nM.
On the same counts, the results for `Cn1nc(NS(C)(=O)=O)c2c(Cl)ccc(-n3c([C@H](Cc4cc(F)cc(F)c4)NC(=O)Cn4nc(C(F)F)c5c4C(F)(F)[C@@H]4C[C@H]54)nc4nc(NCCCF)ccc4c3=O)c21` (atropisomer, axis not shown; (P)) [Example 35, N—((S)-1-((3P)-3-(4-chloro-1-methyl-3-(methylsulfonamido)-1H-indazol-7-yl)-7-((3-fluoropropyl)amino)-4-oxo-3,4-dihydropyrido[2,3-d]pyrimidin-2-yl)-2-(3,5-difluorophenyl)ethyl)-2-((3bS,4aR)-3-(difluoromethyl)-5,5-difluoro-3b,4,4a,5-tetrahydro-1H-cyclopropa[3,4]cyclopenta[1,2-c]pyrazol-1-yl)acetamide] are greater than 100 nM and 0.11 nM.
On the same counts, the results for `Cn1nc(NS(C)(=O)=O)c2c(Cl)ccc(-n3c([C@H](Cc4cc(F)cc(F)c4)NC(=O)Cn4nc(C(F)F)c5c4C(F)(F)[C@@H]4C[C@H]54)nc4nc(N5CCOCC5)ccc4c3=O)c21` (atropisomer, axis not shown; (P)) [Example 23, N—((S)-1-((3P)-3-(4-chloro-1-methyl-3-(methylsulfonamido)-1H-indazol-7-yl)-7-morpholino-4-oxo-3,4-dihydropyrido[2,3-d]pyrimidin-2-yl)-2-(3,5-difluorophenyl)ethyl)-2-((3bS,4aR)-3-(difluoromethyl)-5,5-difluoro-3b,4,4a,5-tetrahydro-1H-cyclopropa[3,4]cyclopenta[1,2-c]pyrazol-1-yl)acetamide] are greater than 100 nM and 0.058 nM.

Source of the values: patent US20210395248A1, “INHIBITORS OF HUMAN IMMUNODEFICIENCY VIRUS REPLICATION” (ViiV HEALTHCARE UK (NO.5) LIMITED, priority 2018, published 2021).
